Legend:
CaMK2α = molecular target: T1, CaMK2α (Homo sapiens, UniProt Q9UQM7); test: Kinase panel (Carna); format: biochemical
T1 construct: purchased Carna Biosciences
Excerpt: (§1) Detailed information on the assay conditions is available on the website of Carna Biosciences (http://www.carnabio.com).

ROCK2 = molecular target: T2, ROCK2 (Homo sapiens, UniProt O75116); test: Kinase panel (Carna); format: biochemical
T2 construct: purchased Carna Biosciences

CaMK2β = molecular target: T3, CaMK2β (Homo sapiens, UniProt Q13554); test: Kinase panel (Carna); format: biochemical
T3 construct: purchased Carna Biosciences

p70S6Kβ = molecular target: T4, p70S6Kβ (Homo sapiens, UniProt Q9UBS0); test: Kinase panel (Carna); format: biochemical
T4 construct: purchased Carna Biosciences
Excerpt: as §1

NEK7 = molecular target: T5, NEK7 (Homo sapiens, UniProt Q8TDX7); test: Kinase panel (Carna); format: biochemical
T5 construct: purchased Carna Biosciences

SRC = molecular target: T6, SRC (Homo sapiens, UniProt P12931); test: Kinase panel (Carna); format: biochemical
T6 construct: purchased Carna Biosciences
Excerpt: as §1

MOS_Cascade = molecular target: T7, MOS_Cascade (Homo sapiens, UniProt P00540); test: Kinase panel (Carna); format: biochemical
T7 construct: purchased Carna Biosciences

EPHA3 = molecular target: T8, EPHA3 (Homo sapiens, UniProt P29320); test: Kinase panel (Carna); format: biochemical
T8 construct: purchased Carna Biosciences

PKD1 = molecular target: T9, PKD1 (Homo sapiens, UniProt Q15139); test: Kinase panel (Carna); format: biochemical
T9 construct: purchased Carna Biosciences
Excerpt: as §1

WNK2 = molecular target: T10, WNK2 (Homo sapiens, UniProt Q9Y3S1); test: Kinase panel (Carna); format: biochemical
T10 construct: purchased Carna Biosciences
Excerpt: as §1

KDR = molecular target: T11, KDR (Homo sapiens, UniProt P35968); test: Kinase panel (Carna); format: biochemical
T11 construct: purchased Carna Biosciences
Excerpt: as §1

SLK = molecular target: T12, SLK (Homo sapiens, UniProt Q9H2G2); test: Kinase panel (Carna); format: biochemical
T12 construct: purchased Carna Biosciences
Excerpt: as §1

ABL = molecular target: T13, ABL (Homo sapiens, UniProt P00519); test: Kinase panel (Carna); format: biochemical
T13 construct: purchased Carna Biosciences
Excerpt: as §1

FGFR3 = molecular target: T14, FGFR3 (Homo sapiens, UniProt P22607); test: Kinase panel (Carna); format: biochemical
T14 construct: purchased Carna Biosciences

SPHK1 = molecular target: T15, SPHK1 (Homo sapiens, UniProt Q9NYA1); test: Kinase panel (Carna); format: biochemical
T15 construct: purchased Carna Biosciences
Excerpt: as §1

DDR2 = molecular target: T16, DDR2 (Homo sapiens, UniProt Q16832); test: Kinase panel (Carna); format: biochemical
T16 construct: purchased Carna Biosciences

FGFR4 = molecular target: T17, FGFR4 (Homo sapiens, UniProt P22455); test: Kinase panel (Carna); format: biochemical
T17 construct: purchased Carna Biosciences

YES = molecular target: T18, YES (Homo sapiens, UniProt P07947); test: Kinase panel (Carna); format: biochemical
T18 construct: purchased Carna Biosciences
Excerpt: as §1

NEK4 = molecular target: T19, NEK4 (Homo sapiens, UniProt P51957); test: Kinase panel (Carna); format: biochemical
T19 construct: purchased Carna Biosciences

HGK = molecular target: T20, HGK (Homo sapiens, UniProt O95819); test: Kinase panel (Carna); format: biochemical
T20 construct: purchased Carna Biosciences

SIK = molecular target: T21, SIK (Homo sapiens, UniProt P57059); test: Kinase panel (Carna); format: biochemical
T21 construct: purchased Carna Biosciences

IKKα = molecular target: T22, IKKα (Homo sapiens, UniProt O15111); test: Kinase panel (Carna); format: biochemical
T22 construct: purchased Carna Biosciences
Excerpt: as §1

ROS = molecular target: T23, ROS (Homo sapiens, UniProt P08922); test: Kinase panel (Carna); format: biochemical
T23 construct: purchased Carna Biosciences
Excerpt: as §1

PKCι = molecular target: T24, PKCι (Homo sapiens, UniProt P41743); test: Kinase panel (Carna); format: biochemical
T24 construct: purchased Carna Biosciences
Excerpt: as §1

PIM3 = molecular target: T25, PIM3 (Homo sapiens, UniProt Q86V86); test: Kinase panel (Carna); format: biochemical; conditions: 10 µM FINDY
T25 construct: purchased Carna Biosciences

FAK = molecular target: T26, FAK (Homo sapiens, UniProt Q05397); test: Kinase panel (Carna); format: biochemical
T26 construct: purchased Carna Biosciences
Excerpt: as §1

PIM1 = molecular target: T27, PIM1 (Homo sapiens, UniProt P11309); test: Kinase panel (Carna); format: biochemical; conditions: 10 µM FINDY
T27 construct: purchased Carna Biosciences
Excerpt: as §1

CK1γ1 = molecular target: T28, CK1γ1 (Homo sapiens, UniProt Q9HCP0); test: Kinase panel (Carna); format: biochemical
T28 construct: purchased Carna Biosciences

PLK2 = molecular target: T29, PLK2 (Homo sapiens, UniProt Q9NYY3); test: Kinase panel (Carna); format: biochemical
T29 construct: purchased Carna Biosciences

CDK6/CycD3 = molecular target: T30, CDK6/CycD3 (Homo sapiens, UniProt Q00534); test: Kinase panel (Carna); format: biochemical
T30 construct: purchased Carna Biosciences
Excerpt: as §1

MAP3K3_Cascade = molecular target: T31, MAP3K3_Cascade (Homo sapiens, UniProt Q99759); test: Kinase panel (Carna); format: biochemical
T31 construct: purchased Carna Biosciences
Excerpt: as §1

PAK3 = molecular target: T32, PAK3 (Homo sapiens, UniProt O75914); test: Kinase panel (Carna); format: biochemical
T32 construct: purchased Carna Biosciences
Excerpt: as §1

TNIK = molecular target: T33, TNIK (Homo sapiens, UniProt Q9UKE5); test: Kinase panel (Carna); format: biochemical
T33 construct: purchased Carna Biosciences
Excerpt: as §1

TSSK2 = molecular target: T34, TSSK2 (Homo sapiens, UniProt Q96PF2); test: Kinase panel (Carna); format: biochemical
T34 construct: purchased Carna Biosciences
Excerpt: as §1

RSK3 = molecular target: T35, RSK3 (Homo sapiens, UniProt Q15349); test: Kinase panel (Carna); format: biochemical
T35 construct: purchased Carna Biosciences

CK2α1/β = molecular target: T36, CK2α1/β (Homo sapiens, UniProt P68400); test: Kinase panel (Carna); format: biochemical
T36 construct: purchased Carna Biosciences

PKACβ = molecular target: T37, PKACβ (Homo sapiens, UniProt P22694); test: Kinase panel (Carna); format: biochemical
T37 construct: purchased Carna Biosciences

other 13 kinases = test: Endogenous kinases in intact HEK293 cells, western blot; format: cell-based; conditions: 3 days
Excerpt: The results are presented as means±s.d. (n=4). […] Representative data from the duplicate experiments are shown.

EPHB2 = molecular target: T38, EPHB2 (Homo sapiens, UniProt P29323); test: Kinase panel (Carna); format: biochemical
T38 construct: purchased Carna Biosciences
Excerpt: as §1

MRCKα = molecular target: T39, MRCKα (Homo sapiens, UniProt Q5VT25); test: Kinase panel (Carna); format: biochemical
T39 construct: purchased Carna Biosciences

MAP2K4_Cascade = molecular target: T40, MAP2K4_Cascade (Homo sapiens, UniProt P45985); test: Kinase panel (Carna); format: biochemical
T40 construct: purchased Carna Biosciences

FES = molecular target: T41, FES (Homo sapiens, UniProt P07332); test: Kinase panel (Carna); format: biochemical
T41 construct: purchased Carna Biosciences
Excerpt: as §1

PKCθ = molecular target: T42, PKCθ (Homo sapiens, UniProt Q04759); test: Kinase panel (Carna); format: biochemical
T42 construct: purchased Carna Biosciences
Excerpt: as §1

AKT3 = molecular target: T43, AKT3 (Homo sapiens, UniProt Q9Y243); test: Kinase panel (Carna); format: biochemical
T43 construct: purchased Carna Biosciences
T43 sequence (Q9Y243 whole entry): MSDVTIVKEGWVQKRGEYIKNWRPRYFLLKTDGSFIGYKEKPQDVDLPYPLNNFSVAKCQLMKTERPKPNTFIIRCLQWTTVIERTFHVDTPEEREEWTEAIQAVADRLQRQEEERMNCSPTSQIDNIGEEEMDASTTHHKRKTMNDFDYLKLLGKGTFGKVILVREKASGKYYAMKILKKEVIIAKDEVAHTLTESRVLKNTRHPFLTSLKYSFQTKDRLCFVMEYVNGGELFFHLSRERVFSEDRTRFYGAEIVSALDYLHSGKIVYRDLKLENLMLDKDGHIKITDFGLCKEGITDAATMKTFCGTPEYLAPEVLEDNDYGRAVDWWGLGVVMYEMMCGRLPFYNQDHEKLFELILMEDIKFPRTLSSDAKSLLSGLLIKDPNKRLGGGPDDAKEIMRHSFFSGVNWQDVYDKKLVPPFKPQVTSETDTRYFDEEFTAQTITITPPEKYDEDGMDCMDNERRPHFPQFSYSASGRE
Excerpt: as §1

T40 sequence (P45985 whole entry): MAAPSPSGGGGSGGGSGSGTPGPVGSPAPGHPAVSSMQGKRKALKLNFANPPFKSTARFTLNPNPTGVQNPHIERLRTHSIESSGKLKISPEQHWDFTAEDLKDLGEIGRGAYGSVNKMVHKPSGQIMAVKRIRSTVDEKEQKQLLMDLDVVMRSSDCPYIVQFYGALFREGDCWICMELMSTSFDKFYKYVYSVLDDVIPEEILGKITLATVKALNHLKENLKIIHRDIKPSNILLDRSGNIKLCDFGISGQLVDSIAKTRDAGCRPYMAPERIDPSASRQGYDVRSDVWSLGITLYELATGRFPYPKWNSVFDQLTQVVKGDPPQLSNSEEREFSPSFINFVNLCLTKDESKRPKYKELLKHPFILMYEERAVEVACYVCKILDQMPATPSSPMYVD
T9 sequence (Q15139 whole entry): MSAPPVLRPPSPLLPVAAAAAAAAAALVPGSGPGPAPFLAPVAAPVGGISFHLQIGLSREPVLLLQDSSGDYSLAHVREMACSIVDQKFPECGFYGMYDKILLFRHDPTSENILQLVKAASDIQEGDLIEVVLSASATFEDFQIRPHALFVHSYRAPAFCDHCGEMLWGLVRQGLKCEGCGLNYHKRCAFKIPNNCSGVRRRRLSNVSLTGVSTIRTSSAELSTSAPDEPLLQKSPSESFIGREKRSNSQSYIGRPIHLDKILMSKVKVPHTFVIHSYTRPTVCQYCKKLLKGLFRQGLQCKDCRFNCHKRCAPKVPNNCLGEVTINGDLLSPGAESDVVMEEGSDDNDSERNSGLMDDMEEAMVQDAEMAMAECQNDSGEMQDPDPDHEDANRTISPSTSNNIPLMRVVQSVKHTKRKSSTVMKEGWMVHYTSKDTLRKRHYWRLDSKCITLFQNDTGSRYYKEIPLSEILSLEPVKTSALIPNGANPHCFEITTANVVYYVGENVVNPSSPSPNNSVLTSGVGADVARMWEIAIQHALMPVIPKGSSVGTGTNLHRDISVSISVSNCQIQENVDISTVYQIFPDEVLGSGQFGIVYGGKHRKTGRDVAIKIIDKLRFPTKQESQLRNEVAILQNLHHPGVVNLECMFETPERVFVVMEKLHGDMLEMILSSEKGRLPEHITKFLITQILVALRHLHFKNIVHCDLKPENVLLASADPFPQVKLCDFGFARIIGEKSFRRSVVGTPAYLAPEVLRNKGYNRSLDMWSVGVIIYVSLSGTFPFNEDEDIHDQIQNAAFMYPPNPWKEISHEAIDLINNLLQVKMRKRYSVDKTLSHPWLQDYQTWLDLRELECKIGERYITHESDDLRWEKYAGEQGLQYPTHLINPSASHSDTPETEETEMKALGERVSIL
T34 sequence (Q96PF2 whole entry): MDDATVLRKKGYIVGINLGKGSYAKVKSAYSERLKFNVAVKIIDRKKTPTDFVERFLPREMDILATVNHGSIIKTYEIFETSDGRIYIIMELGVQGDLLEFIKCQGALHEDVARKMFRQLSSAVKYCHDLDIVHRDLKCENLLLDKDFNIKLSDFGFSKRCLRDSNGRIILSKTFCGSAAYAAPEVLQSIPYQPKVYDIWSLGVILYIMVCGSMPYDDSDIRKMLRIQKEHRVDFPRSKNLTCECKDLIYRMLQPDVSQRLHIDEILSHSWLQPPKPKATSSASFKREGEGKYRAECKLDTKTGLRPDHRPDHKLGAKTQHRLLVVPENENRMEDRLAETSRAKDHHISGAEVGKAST
T31 sequence (Q99759 whole entry): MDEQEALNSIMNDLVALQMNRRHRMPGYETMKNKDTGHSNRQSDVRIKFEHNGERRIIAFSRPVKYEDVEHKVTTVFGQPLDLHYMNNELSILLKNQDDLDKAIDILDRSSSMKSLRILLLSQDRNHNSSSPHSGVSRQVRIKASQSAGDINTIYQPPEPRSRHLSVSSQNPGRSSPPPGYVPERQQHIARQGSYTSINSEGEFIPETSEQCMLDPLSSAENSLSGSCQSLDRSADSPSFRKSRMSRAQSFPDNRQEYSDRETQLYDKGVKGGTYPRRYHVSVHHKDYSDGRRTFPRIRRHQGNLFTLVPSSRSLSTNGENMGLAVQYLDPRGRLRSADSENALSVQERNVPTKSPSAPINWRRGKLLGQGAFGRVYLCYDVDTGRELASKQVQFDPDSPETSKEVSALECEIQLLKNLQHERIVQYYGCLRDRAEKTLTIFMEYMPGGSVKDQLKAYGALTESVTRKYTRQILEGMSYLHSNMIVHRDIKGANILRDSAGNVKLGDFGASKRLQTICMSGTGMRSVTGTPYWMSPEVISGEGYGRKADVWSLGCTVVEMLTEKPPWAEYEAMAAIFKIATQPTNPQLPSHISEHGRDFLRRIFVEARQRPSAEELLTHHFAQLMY
T1 sequence (Q9UQM7 whole entry): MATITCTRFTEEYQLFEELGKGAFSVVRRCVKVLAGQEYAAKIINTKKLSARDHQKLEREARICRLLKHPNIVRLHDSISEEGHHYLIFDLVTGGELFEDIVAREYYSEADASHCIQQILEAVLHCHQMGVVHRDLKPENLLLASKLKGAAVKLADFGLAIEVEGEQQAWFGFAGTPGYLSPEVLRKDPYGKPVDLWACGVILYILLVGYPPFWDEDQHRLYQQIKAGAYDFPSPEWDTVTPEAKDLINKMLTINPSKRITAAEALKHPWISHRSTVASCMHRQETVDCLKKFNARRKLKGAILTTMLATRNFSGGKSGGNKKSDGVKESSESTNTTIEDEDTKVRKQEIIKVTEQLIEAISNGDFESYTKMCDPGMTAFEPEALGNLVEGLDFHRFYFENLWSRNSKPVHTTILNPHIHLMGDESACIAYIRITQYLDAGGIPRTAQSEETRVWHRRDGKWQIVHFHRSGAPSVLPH
T13 sequence (P00519 whole entry): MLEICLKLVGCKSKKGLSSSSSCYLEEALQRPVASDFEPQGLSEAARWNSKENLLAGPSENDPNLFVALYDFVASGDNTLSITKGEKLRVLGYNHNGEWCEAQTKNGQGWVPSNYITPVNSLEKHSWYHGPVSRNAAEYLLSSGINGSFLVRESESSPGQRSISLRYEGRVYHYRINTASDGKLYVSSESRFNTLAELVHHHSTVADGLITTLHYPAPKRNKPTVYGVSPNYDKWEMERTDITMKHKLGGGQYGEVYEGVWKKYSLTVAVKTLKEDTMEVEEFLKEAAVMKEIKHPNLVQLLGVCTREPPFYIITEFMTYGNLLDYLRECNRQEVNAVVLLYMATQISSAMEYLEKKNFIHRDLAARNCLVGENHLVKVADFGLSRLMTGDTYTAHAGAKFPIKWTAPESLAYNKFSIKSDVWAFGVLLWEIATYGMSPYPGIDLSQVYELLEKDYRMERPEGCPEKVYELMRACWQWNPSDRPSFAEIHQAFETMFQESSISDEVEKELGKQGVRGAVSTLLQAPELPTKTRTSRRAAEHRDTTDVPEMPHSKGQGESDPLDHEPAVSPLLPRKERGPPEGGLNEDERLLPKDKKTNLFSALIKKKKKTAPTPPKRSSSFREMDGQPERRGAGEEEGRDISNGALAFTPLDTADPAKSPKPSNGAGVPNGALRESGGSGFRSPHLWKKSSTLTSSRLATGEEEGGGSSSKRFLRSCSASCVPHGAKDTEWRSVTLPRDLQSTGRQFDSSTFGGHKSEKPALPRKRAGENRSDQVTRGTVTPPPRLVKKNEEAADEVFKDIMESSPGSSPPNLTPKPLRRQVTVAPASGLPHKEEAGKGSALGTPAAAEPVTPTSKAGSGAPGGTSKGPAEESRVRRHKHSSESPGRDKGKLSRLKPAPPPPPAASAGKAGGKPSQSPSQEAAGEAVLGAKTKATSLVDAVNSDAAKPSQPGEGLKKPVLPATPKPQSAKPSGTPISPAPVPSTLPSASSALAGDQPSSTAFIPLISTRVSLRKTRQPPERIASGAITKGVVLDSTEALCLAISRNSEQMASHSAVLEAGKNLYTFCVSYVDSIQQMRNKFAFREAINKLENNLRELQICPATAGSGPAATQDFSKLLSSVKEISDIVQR
T3 sequence (Q13554 whole entry): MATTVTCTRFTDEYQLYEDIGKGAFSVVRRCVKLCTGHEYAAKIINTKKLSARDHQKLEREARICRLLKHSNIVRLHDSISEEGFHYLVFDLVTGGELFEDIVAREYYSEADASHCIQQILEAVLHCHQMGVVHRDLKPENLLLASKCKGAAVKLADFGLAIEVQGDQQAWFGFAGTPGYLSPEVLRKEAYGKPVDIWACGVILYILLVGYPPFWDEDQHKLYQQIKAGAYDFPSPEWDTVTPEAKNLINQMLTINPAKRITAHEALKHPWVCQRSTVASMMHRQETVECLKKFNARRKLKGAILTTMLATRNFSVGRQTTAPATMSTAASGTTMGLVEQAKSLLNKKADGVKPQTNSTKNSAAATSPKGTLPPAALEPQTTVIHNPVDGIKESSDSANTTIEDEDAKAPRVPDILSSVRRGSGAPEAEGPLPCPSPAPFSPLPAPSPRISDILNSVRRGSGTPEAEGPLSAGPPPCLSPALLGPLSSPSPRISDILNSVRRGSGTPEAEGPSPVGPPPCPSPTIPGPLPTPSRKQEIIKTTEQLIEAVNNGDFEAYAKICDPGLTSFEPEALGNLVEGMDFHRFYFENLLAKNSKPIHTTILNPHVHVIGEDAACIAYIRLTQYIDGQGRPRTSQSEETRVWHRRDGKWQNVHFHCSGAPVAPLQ

COc1ccc(/C=C2\SC(=S)NC2=O)cc1C#C[Si](C)(C)C [FINDY] showed an inhibition at 10 µM (CaMK2α) of -6.9%, an inhibition at 10 µM (ROCK2) of -2% and an inhibition at 10 µM (CaMK2β) of -3.3%. It also gave an inhibition at 10 µM (p70S6Kβ) of 19.9%, an inhibition at 10 µM (NEK7) of -12.3% and an inhibition at 10 µM (SRC) of 5.6%. For the same compound, the inhibition at 10 µM (MOS_Cascade) was 60.1%, the inhibition at 10 µM (EPHA3) was 20.8% and the inhibition at 10 µM (PKD1) was 11.8%. It also gave an inhibition at 10 µM (WNK2) of 12.3%, an inhibition at 10 µM (KDR) of 1.6% and an inhibition at 10 µM (SLK) of -35%. It also gave an inhibition at 10 µM (ABL) of 13%, an inhibition at 10 µM (FGFR3) of -0.5% and an inhibition at 10 µM (SPHK1) of 51.2%. For the same compound, the inhibition at 10 µM (DDR2) was 13.5%, the inhibition at 10 µM (FGFR4) was 6.9% and the inhibition at 10 µM (YES) was 6.4%. For the same compound, the inhibition at 10 µM (NEK4) was 6.8%, the inhibition at 10 µM (HGK) was 13.4% and the inhibition at 10 µM (SIK) was 15%. It also gave an inhibition at 10 µM (IKKα) of 4.9%, an inhibition at 10 µM (ROS) of 0.3% and an inhibition at 10 µM (PKCι) of -4.3%. The inhibition at 10 µM (PIM3) was 83.1%, the inhibition at 10 µM (FAK) was 7.3% and the inhibition at 10 µM (PIM1) was 76.8%. The inhibition at 10 µM (CK1γ1) was 19.9%, the inhibition at 10 µM (PLK2) was 11.1% and the inhibition at 10 µM (CDK6/CycD3) was 3.2%. The inhibition at 10 µM (MAP3K3_Cascade) was 3.3%, the inhibition at 10 µM (PAK3) was -14.7% and the inhibition at 10 µM (TNIK) was 10.7%. For the same compound, the inhibition at 10 µM (TSSK2) was 39.9%, the inhibition at 10 µM (RSK3) was 28% and the inhibition at 10 µM (CK2α1/β) was 45.4%. The inhibition at 10 µM (PKACβ) was 65.3%, the “endogenous expression of the other 13 kinases” value (other 13 kinases) was “no alteration” and the inhibition at 10 µM (EPHB2) was 10.1%. The inhibition at 10 µM (MRCKα) was 2.7%, the inhibition at 10 µM (MAP2K4_Cascade) was 6.4% and the inhibition at 10 µM (FES) was 1.6%. The inhibition at 10 µM (PKCθ) was 6.5% and the inhibition at 10 µM (AKT3) was 18.9%.

From publication PMC4844702, “Selective inhibition of the kinase DYRK1A by targeting its folding process” (Nature Communications, 2016)
